Marks after values point to notes of the source that are not given here.
Experiments:
[1] = test system: IFN-γ production; assay: IFN-γ production in the mixed leukocyte response (MLR); assay type: cell-based; settings: MLR of allogeneic PBMC, 5 days, ELISA; for IC50: 120 h, read-out: INF-γ IC50
Procedure: Immature dendritic cells (DC) were prepared as described in Romani, N. et al., J. Immunol. Meth.

[2] = test system: RT112; assay: Proliferation assay, bladder cancer cell line RT112; assay type: cell-based; settings: Homo sapiens, RT-112; 72 h culture, CyQuant proliferation assay
Procedure: (§1) Bladder cancer cell lines (T24, RT112, HT1376 and RT4 are human bladder cancer cell lines; NHEK are normal human keratinocytes) were obtained from the European Collection of Cell Cultures (Salisbury, UK). […] After a further 72 h of culture, cell proliferation was measured using a fluorescence-based proliferation assay kit. (CyQuant Cell Proliferation Assay Kit, Molecular Probes, Eugene, Oreg., USA). The IC50 was calculated from the regression curve of the titration data.

[3] = test system: RT4; assay: Proliferation assay, bladder cancer cell line RT4; assay type: cell-based; settings: Homo sapiens, RT-4; 72 h culture, CyQuant proliferation assay
Procedure: as §1

[4] = in vivo; settings: female, C57BL/6, mouse, po
[5] = test system: HL-60 cells; assay: HL-60 (CD14) cell differentiation; assay type: cell-based; settings: Homo sapiens, HL-60 cell differentiation, read-out: HL-60(CD14) ED50
[6] = test system: ECV; assay: Proliferation assay, bladder cancer cell line ECV; assay type: cell-based; settings: Homo sapiens; 72 h culture, CyQuant proliferation assay
[7] = test system: NHEK; assay: Proliferation assay, normal human keratinocytes NHEK; assay type: cell-based; settings: 72 h culture, CyQuant proliferation assay
Procedure: as §1

[8] = target: T1, VDR (Homo sapiens, UniProt P11473); assay: VDR binding; settings: 1,25(OH)2D3 100.0
T1 sequence (P11473 1-427): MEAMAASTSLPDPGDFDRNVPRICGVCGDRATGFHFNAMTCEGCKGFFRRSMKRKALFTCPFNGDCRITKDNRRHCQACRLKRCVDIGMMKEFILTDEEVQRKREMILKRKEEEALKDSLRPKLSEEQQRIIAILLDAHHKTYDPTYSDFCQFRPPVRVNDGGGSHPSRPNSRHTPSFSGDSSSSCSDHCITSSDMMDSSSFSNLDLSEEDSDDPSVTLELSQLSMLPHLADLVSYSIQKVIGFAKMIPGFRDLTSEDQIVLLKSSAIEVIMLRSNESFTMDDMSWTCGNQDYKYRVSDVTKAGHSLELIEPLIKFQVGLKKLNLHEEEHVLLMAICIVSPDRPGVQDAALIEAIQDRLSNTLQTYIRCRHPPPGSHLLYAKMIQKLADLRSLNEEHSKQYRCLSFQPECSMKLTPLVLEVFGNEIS

[9] = test system: renin mRNA in As4.1hVDR cells; assay: Renin suppression assay (renin mRNA, Northern blot); settings: 10^−10, 10^−9 and 10^−8 M, 24 hours
[10] = test system: HT 1376; assay: Proliferation assay, bladder cancer cell line HT 1376; assay type: cell-based; settings: Homo sapiens, 72 h culture, CyQuant proliferation assay
Procedure: as §1

[11] = test system: ILT3 expression on monocyte-derived immature dendritic cells; assay: ILT3 upregulation on monocyte-derived immature dendritic cells (flow cytometry); assay type: cell-based, human; settings: 24 hours; for upregulation of ILT3 expression: graded doses, up to 1000 nM
Procedure: Immature dendritic cells (DC) were prepared as described in Romani, N. et al., (1996) J. Immunol. Meth. 196:137). Briefly, peripheral blood mononuclear cells (PBMCs) were obtained from a buffy coat by ficoll-hypaque gradient (Pharmacia Biotec AB, Upsala, Sweden) and monocytes isolated from PBMCs by negative selected with a monocyte isolation kit (Milteny, Biotech, Bergish Gladblach, Germany). After isolation, monocytes were cultured for 6 to 7 days at a cell density of 1-2×106 in RPMI medium supplemented with 5% FetalClone I (Hyclone Laboratories, Logan, Utah) 2 mM L-glutamine, […], 1 mM sodium pyruvate and 1% nonessential amino acids, containing 800 U/ml GM-CSF (Mielogen 300, Schering-Plough) and 10 ng/ml interleukin (IL)-4 (PharMingen, San Diego, Calif.). Every other day, approximately 20% of the medium was removed and replaced by the same volume of fresh medium containing GM-CSF and IL-4.
Immunoglobulin-like transcript-3 upregulation was evaluated by flow cytometric analysis. Briefly, cells were preincubated with […] human IgG (Sigma Chemical, St. Louis, Mo.) and subsequently stained with anti-human ILT3 antibody (see, e.g., Cella, M. et al. (1997) J. Exp. Med. 185:1743) followed by anti-mouse IgG-phycoerithryn (Jackson). Cells were then analyzed with a FACScanR flow cytometer using a Cell QuestR software program (both from Beckton Dickinson, Mountain View, Calif.).

SMILES: [2H]C([2H])([2H])C(O)(CCC[C@@H](CC#CC(O)(C(F)(F)F)C(F)(F)F)C1CCC2/C(=C/C=C3C[C@@H](O)C[C@H](O)C3)CCC[C@@]21C)C([2H])([2H])[2H] (stereo partly drawn) [Compound 39, 1,25-Dihydroxy-21(3-hydroxy-3-trifluoromethyl-4-trifluoro-butynyl)-26,27-hexadeutero-19-nor-20S-cholecalciferol]
- IC50 [1]: 0.062 nM
- IC50 [2]: 7 µM
- IC50 [3]: 2.2 µM
- MTD [4]: 0.0003 mg/kg

SMILES: C=C1/C(=C\C=C2/CCC[C@]3(C)[C@@H]([C@@H](CCCC(C)(C)O)CC[C@@H](O)C(C)(C)O)CC[C@@H]23)C[C@@H](O)C[C@@H]1O [Compound 2, 1,25-Dihydroxy-21-(2R,3-dihydroxy-3-methyl-butyl)-20S-cholecalciferol]
- EC50 [5]: 0.0093 µM
- IC50 [1]: 0.549 nM
- IC50 [6]: 69.4 µM
- IC50 [2]: 1 µM
- IC50 [3]: 62 µM
- IC50 [7]: 37.2 µM
- MTD [4]: 0.03 mg/kg
- VDR Binding [8]: 0.95**
- renin suppression activity compared with 1,25(OH)2D3 [9]: more potent in suppressing renin expression than 1,25(OH)2D3

SMILES: C=C1/C(=C\C=C2/CCC[C@@]3(C)C2CC[C@@H]3C(CCCC(C)(C)O)CCCC(C)(C)O)CC(O)C[C@@H]1O (stereo partly shown) [Compound 1, 1,25-Dihydroxy-21-(3-hydroxy-3-methyl-butyl)-cholecalciferol, reference compound]
- EC50 [5]: 0.00034 µM
- IC50 [1]: 0.022 nM
- down regulation of INF-γ (class symbol) [1]: * (good down regulation of INF-γ (e.g., less than 100 IC50 pM))
- MTD [4]: 0.003 mg/kg
- VDR Binding [8]: 38.0**
- renin suppression activity compared with 1,25(OH)2D3 [9]: comparable to that of 1,25(OH)2D3

SMILES: C=C1/C(=C\C=C2/CCC[C@]3(C)[C@@H]([C@H](CCCC(C)(C)O)CC[C@@H](O)C(C)(C)O)CC[C@@H]23)C[C@@H](O)C[C@@H]1O [Compound 3, 1,25-Dihydroxy-21-(2R,3-dihydroxy-3-methyl-butyl)-20R-cholecalciferol]
- EC50 [5]: 0.00217 µM
- IC50 [1]: 0.066 nM
- down regulation of INF-γ (class symbol) [1]: * (good down regulation of INF-γ (e.g., less than 100 IC50 pM))
- IC50 [6]: 57.9 µM
- IC50 [2]: 25 µM
- IC50 [10]: 98 µM
- IC50 [3]: 71 µM
- IC50 [7]: 46.5 µM
- MTD [4]: 0.03 mg/kg
- VDR Binding [8]: 42.10*
- renin suppression activity compared with 1,25(OH)2D3 [9]: comparable to that of 1,25(OH)2D3

SMILES: [2H]C([2H])([2H])C(O)(CCC[C@@H](CC#CC(O)(C(F)(F)F)C(F)(F)F)C1CCC2/C(=C/C=C3/C[C@@H](O)C[C@H](O)C3=C)CCC[C@@]21C)C([2H])([2H])[2H] (stereo partly drawn) [Compound 40, 1,25-Dihydroxy-21-(3-hydroxy-3-trifluoromethyl-4-trifluoro-butynyl)-26,27-hexadeutero-20S-cholecalciferol]
- IC50 [1]: 0.062 nM
- IC50 [2]: 6.4 µM
- IC50 [3]: 2.2 µM
- MTD [4]: 0.0001 mg/kg

SMILES: C=C1/C(=C\C=C2/CCC[C@@]3(C)C2CC[C@@H]3C(CC#CC(O)(C(F)(F)F)C(F)(F)F)CCCC(C)(C)O)CC(O)C[C@@H]1O (stereo partly drawn) [Compound 11, 1,25-Dihydroxy-21-(3-hydroxy-3-trifluoromethyl-4-trifluorobutynyl)-20R-cholecalciferol]
- renin suppression activity compared with 1,25(OH)2D3 [9]: comparable to that of 1,25(OH)2D3

SMILES: C=C1/C(=C\C=C2/CCC[C@]3(C)[C@@H]([C@@H](CCCC(C)(C)O)CC[C@@H](O)C(C)(C)O)CC[C@@H]23)C[C@@H](O)C[C@@H]1O (stereo in doubt) [Compound 2, 1,25-Dihydroxy-21-(2R,3-dihydroxy-3-methyl-butyl)-20S-cholecalciferol]
- ILT3 mean fluorescence intensity ([11]; 1 nM of compound): 260
- upregulation of ILT3 expression ([11]; listed as 1,24R,25-trihydroxy-20R-21-(3-hydroxy-3-methylbutyl)): very favourable upregulation
- upregulation of ILT3 expression ([11]; listed as ix): greatest upregulation of ILT3

SMILES: C=C1/C(=C\C=C2/CCC[C@]3(C)[C@@H]([C@H](C)CCCC(C)(C)O)CC[C@@H]23)C[C@@H](O)C[C@@H]1O [1,25(OH)2D3, reference compound]
- EC50 [5]: 0.00137 µM
- IC50 [1]: 0.029 nM
- down regulation of INF-γ (class symbol) [1]: * (good down regulation of INF-γ (e.g., less than 100 IC50 pM))
- IC50 [2]: 19 µM
- IC50 [10]: 50 µM
- IC50 [3]: 45 µM
- IC50 [7]: 4.9 µM

SMILES: C=C1/C(=C\C=C2/CCC[C@@]3(C)C2CC[C@@H]3[C@H](CC#CC(O)(C(F)(F)F)C(F)(F)F)CCCC(C)(C)O)CC(O)C[C@@H]1O (stereo partly drawn) [Compound 4, 1,25-Dihydroxy-21-(3-hydroxy-3-trifluoromethyl-4-trifluoro-butynyl)-20S-cholecalciferol]
- renin suppression activity compared with 1,25(OH)2D3 [9]: more potent in suppressing renin expression than 1,25(OH)2D3

SMILES: CC(C)(O)CCC[C@@H](CC#CC(O)(C(F)(F)F)C(F)(F)F)[C@H]1CCC2/C(=C/C=C3/CC(O)C[C@H](O)C3)CCC[C@@]21C (stereo partly drawn) [Compound 6, 1,25-Dihydroxy-21-(3-hydroxy-3-trifluoromethyl-4-trifluoro-butynyl)-20S-19-nor-cholecalciferol]
- renin suppression activity compared with 1,25(OH)2D3 [9]: more potent in suppressing renin expression than 1,25(OH)2D3

SMILES: CC(C)(O)CCCC(CC#CC(O)(C(F)(F)F)C(F)(F)F)[C@H]1CCC2/C(=C/C=C3/CC(O)C[C@H](O)C3)CCC[C@@]21C (stereo partly drawn) [Compound 5, 1,25-Dihydroxy-21-(3-hydroxy-3-trifluoromethyl-4-trifluoro-butynyl)-20R-19-nor-cholecalciferol]
- renin suppression activity compared with 1,25(OH)2D3 [9]: comparable to that of 1,25(OH)2D3

SMILES: CC(C)(O)CCC[C@@H](CCC(=O)C(C)(C)O)[C@H]1CC[C@H]2/C(=C/C=C3C[C@@H](O)C[C@H](O)C3)CCC[C@]12C [Compound 12, 1,25-Dihydroxy-20S-21-(3-hydroxy-3-methyl-butyl)-24-keto-19-nor-cholecalciferol]
- IC50 [1]: 2.97 nM
- IC50 [2]: > 30 µM
- IC50 [3]: 2.6 µM
- MTD [4]: 0.03 mg/kg

SMILES: COc1c(C)c2c(c(O)c1C/C=C(\C)CCC(=O)OCCN1CCOCC1)C(=O)OC2 [Mycophenolate Mofetil, reference compound]
- upregulation of ILT3 expression [11]: fail to upregulate ILT3 expression at any concentration tested

SMILES: C=C1/C(=C\C=C2/CCC[C@]3(C)[C@@H]([C@@H](CCCC(C)(C)O)CCC(=O)C(C)(C)O)CC[C@@H]23)C[C@@H](O)C[C@@H]1O [Compound 14, 1,25-Dihydroxy-20S-21-(3-hydroxy-3-methyl-butyl)-24-keto-cholecalciferol]
- IC50 [1]: 0.35 nM
- IC50 [2]: 25.5 µM
- IC50 [3]: 8.3 µM
- MTD [4]: 0.03 mg/kg

SMILES: CC(C)(O)CCC[C@@H](CC[C@@H](O)C(C)(C)O)[C@H]1CC[C@H]2/C(=C/C=C3C[C@@H](O)C[C@H](O)C3)CCC[C@]12C [Compound 38, 1,25-Dihydroxy-21-(2R,3-dihydroxy-3-methyl-butyl)-20S-19-nor-cholecalciferol]
- IC50 [1]: 3.86 nM
- IC50 [6]: 99.2 µM
- IC50 [2]: 44 µM
- IC50 [10]: > 100 µM
- IC50 [3]: 72 µM
- IC50 [7]: 57 µM
- MTD [4]: > 0.3 mg/kg

Source: patent US20080280859A1, “GEMINI VITAMIN D3 COMPOUNDS AND METHODS OF USE THEREOF” (BioXell S.p.A., priority 2005, published 2008)
